The record followed here is patent US20240059693A1, “FUSED BICYCLIC PYRAZOLE DERIVATIVES AND METHODS OF USE THEREOF FOR THE TREATMENT OF HERPESVIRUSES” (Merck Sharp & Dohme LLC, priority 2020, published 2024).

Where two headings read alike, the source gives them in different places.

Assay [1] deals with T1, Human cytomegalovirus DNA polymerase (Human cytomegalovirus, UniProt P08546).
T1 construct: made in house; host or cells: SF21 insect cells (baculovirus vector)
In words: HCMV polymerase assay (AlphaLISA). It is filed as biochemical. The settings on record: HCMV DNA polymerase 0.2 nM, 60 minutes at 37° C.; read-out: CMV (IC50). Summed up: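 Baculovirus/SF21-expressed polymerase (HCMV 0.2 nM; VZV 0.4 nM) pre-incubated 30 min at room temperature with compound in HEPES pH 7.5 buffer, then 60 min at 37 °C with 1.6 nM DIG-primer/template, sub-nM to 24 nM dNTPs and 0.8 nM biotin-dUTP. AlphaLISA detection; IC50 from 4-parameter fit.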
Background: In Alpha technology, singlet oxygen from a donor bead excites a nearby acceptor bead.

The subject of the next assay is HSV-1 Strain F. The assay is described as follows: Viral qPCR assay, HSV-1 in MRC5 cells. It counts as cell-based, Herpes Simplex Virus type 1. The settings on record: read-out: HSV1 MRC5 Cell (EC50). How it is done: (§1) MRCS cells, Vero cells, and MeWo cells were obtained from ATCC and were maintained at 37° C./5% CO2/90% relative humidity in Minimal Essential Medium with 10% fetal bovine serum, […] L-glutamine, 100 units/ml penicillin and 100 ug/ml streptomycin. Assay plates were prepared by dispensing compounds dissolved in DMSO into wells of 384 well collagen-coated plates using an ECHO acoustic dispenser. Each compound was tested in a 10-point, serial 3-fold dilution. Controls included uninfected cells and infected cells treated only with DMSO. Assays were initiated by mixing selected cells, in suspension, with virus, and dispensing 50 μl/well infected cells to pre-plated compounds. Plates were incubated at 37° C./5% CO2/90% relative humidity for ˜72 hrs to permit genomic replication, and infected cells were lysed by the addition of an equal volume of lysis buffer (10 mM Tris-HCl, pH8, 50 mM KCl, 2 mM MgCl2, 0.45% NP-40, 0.45% Tween-20, and 100 μg/ml proteinase K). An aliquot of the lysate was transferred to a 384-well PCR plate and incubated at 56° C. for 1 hour and then at 95° C. for 10 min. Levels of a viral gene and of the cellular control, PPIA (Thermo Fisher Assay ID=Hs04194521_s1), were measured in separate 10 μL qPCR assays using TaqMan® Gene Expression Master Mix (Applied Biosystems), and an 7900HT Fast Real-Time PCR System with 384-Well Block Module. 7-point, serial 10-fold dilutions of a plasmid standard were run on each plate to generate a standard curve, and genome copies numbers were calculated by plotting experimental Ct onto linear regression of the standard curve. Viral genome copy numbers were normalized by cellular control copy number, and compound effects were normalized to the window defined by the controls. Calculated % effects were fit using a 4-parameter algorithm, and EC50 was reported.
as §1, with “gene” for “gene and of the cellular control, PPIA (Thermo Fisher Assay ID=Hs04194521_s1),”, “in” for “in separate”, “Compound effects on viral” for “Viral”, “number” for “numbers were normalized by cellular control copy number, and compound effects”
(§2) VZV: Strain Street was maintained as an infected cell stock in MRC-5 cells. It was assayed in MeWo or MRCS cells and was used at 0.04-0.1 pfu/cell. The assays were performed in growth medium. Primer-probe set was Thermo Fisher Assay ID=AIPAEXQ. HSV-1: Strain F Street was assayed in Vero or MRCS cells and was used at 0.0005-0.004 pfu/cell in growth medium. Primer-probe set was Thermo Fisher Assay ID=AIBJZIB
(Quantitative PCR measures a nucleic acid by following its amplification.)

The test system of a further assay is HCMV Strain AD169. The assay is described as follows: Viral qPCR assay, HCMV in MRC-5 cells. It is filed as cell-based, Human cytomegalovirus. The settings on record: read-out: CMV MRC5 Cell (EC50). The method in brief:
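MRC-5 cells infected in suspension with HCMV AD169 (0.05-0.1 pfu/cell) and added to 10-point 3-fold compound dilutions, in growth media or media with 50% FBS. After ~72 h at 37 °C, lysates analysed by TaqMan qPCR against a plasmid standard curve, viral copies normalised to PPIA or not. EC50 from 4-parameter fit.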

The test system of a further assay is VZV. The assay is described as follows: Viral qPCR assay, VZV in MRC5 cells. It counts as cell-based, varicella zoster virus. The settings on record: read-out: VZV MRC5 Cell (IC50). How it is done:
as §1
as §1, with “gene” for “gene and of the cellular control, PPIA (Thermo Fisher Assay ID=Hs04194521_s1),”, “in” for “in separate”, “Compound effects on viral” for “Viral”, “number” for “numbers were normalized by cellular control copy number, and compound effects”
as §2

The next assay deals with HSV2. The assay is described as follows: Viral qPCR assay, HSV2 in MRC5 cells. The settings on record: read-out: HSV2 MRC5 Cell (EC50). It is filed as cell-based, Herpes Simplex Virus type 2. How it is done: as §1
as §1, with “gene” for “gene and of the cellular control, PPIA (Thermo Fisher Assay ID=Hs04194521_s1),”, “in” for “in separate”, “Compound effects on viral” for “Viral”, “number” for “numbers were normalized by cellular control copy number, and compound effects”

Where [2] appears, read: Human alphaherpesvirus 1, MRC5, 72 h.
Setting [3] is: Human betaherpesvirus 5, AD169, MRC5, 72 h.
Where [4] appears, read: Human alphaherpesvirus 3, MRC5, 72 h.
Setting [5] is: Human alphaherpesvirus 2, MRC5, 72 h.

The IC50 is the concentration that gives 50% inhibition. A word on the EC50: it is the midpoint of the concentration-response curve.

T1 sequence (P08546 whole entry): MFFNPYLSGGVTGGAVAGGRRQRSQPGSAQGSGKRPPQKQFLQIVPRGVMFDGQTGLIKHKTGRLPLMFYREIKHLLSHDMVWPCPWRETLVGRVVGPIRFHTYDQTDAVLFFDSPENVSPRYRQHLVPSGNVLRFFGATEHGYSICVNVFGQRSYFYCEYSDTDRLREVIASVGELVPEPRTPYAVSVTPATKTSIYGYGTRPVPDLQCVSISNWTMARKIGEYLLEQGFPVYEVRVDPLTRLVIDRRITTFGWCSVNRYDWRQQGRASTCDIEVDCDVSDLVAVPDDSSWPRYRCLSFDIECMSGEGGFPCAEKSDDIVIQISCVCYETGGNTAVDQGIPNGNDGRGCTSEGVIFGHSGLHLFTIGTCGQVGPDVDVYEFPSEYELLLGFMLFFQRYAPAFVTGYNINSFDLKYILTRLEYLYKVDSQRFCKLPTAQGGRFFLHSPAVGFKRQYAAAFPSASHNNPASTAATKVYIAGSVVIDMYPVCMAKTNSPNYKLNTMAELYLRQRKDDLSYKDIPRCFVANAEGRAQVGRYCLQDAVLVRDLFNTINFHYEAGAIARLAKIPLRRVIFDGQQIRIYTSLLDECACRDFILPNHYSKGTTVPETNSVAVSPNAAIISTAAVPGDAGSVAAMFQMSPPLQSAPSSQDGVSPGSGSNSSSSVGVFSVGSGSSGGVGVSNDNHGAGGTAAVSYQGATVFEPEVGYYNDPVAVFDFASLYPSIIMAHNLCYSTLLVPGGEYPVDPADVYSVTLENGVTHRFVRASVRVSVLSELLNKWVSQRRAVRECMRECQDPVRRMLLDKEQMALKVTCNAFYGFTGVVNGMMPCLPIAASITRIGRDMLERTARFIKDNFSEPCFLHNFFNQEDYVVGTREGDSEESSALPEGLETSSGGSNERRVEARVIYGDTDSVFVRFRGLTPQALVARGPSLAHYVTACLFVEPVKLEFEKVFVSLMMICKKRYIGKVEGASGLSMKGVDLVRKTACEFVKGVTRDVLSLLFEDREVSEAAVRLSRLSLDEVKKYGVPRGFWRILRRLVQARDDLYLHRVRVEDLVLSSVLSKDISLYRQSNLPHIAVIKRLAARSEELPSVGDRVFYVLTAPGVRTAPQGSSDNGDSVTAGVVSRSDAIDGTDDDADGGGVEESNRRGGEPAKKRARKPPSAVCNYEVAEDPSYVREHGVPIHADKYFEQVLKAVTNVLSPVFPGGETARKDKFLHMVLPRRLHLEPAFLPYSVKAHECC

In the case of `Cc1csc(-n2nc(C(=O)NCc3ccc(Cl)cc3)c3c2CN(C[C@H]2CCC(=O)N2)C3)n1` [Compound 12], the IC50 was determined as 23 nM in assay [1] and 220 nM in the assay with VZV (setting [4]). Moreover, the EC50 with HSV-1 Strain F (setting [2]) is 160 nM; with HCMV Strain AD169 (setting [3]), 175 nM; in the assay with HSV2 (setting [5]), 44.8 nM.

`CCC1c2c(c(C(=O)NCc3ccc(Cl)cc3)nn2C)CN1C[C@@H]1CCC(=O)N1` (single isomer, unassigned) [Compound 103]: the IC50 in assay [1] turned out to be 17.4 nM; in the assay with VZV (~72 hrs), 104 nM. Further, the EC50 is 172 nM with HSV-1 Strain F (~72 hrs); 157 nM with HCMV Strain AD169 (MRC5 cells, ~72 hrs); 63 nM in the assay with HSV2 (~72 hrs).

As for `CC1c2c(c(C(=O)NCc3ccc(Cl)cc3)nn2C)CN1C(C)C1CCC(=O)N1` (stereo not shown) [Compound 112], the IC50 in assay [1] stood at 105 nM; in the assay on VZV (~72 hrs), 263 nM. Moreover, the EC50 is 294 nM in the assay on HSV-1 Strain F (~72 hrs); 148 nM in the assay with HCMV Strain AD169 (MRC5 cells, ~72 hrs); 233 nM with HSV2 (~72 hrs).

As to `Cn1ccnc1-n1nc(C(=O)NCc2ccc(Cl)cc2)c2c1CN(C[C@H]1CCC(=O)N1)C2` [Compound 20], the IC50 in assay [1] was found to be 115 nM; in the assay with VZV (setting [4]), 309 nM. The results for the EC50 in the assay with HSV-1 Strain F (setting [2]), in the assay on HCMV Strain AD169 (setting [3]) and with HSV2 (setting [5]) were 449 nM, 448 nM and 143 nM, respectively.

In the case of `Cc1cn(C)c(-n2nc(C(=O)NCc3ccc(Cl)cc3)c3c2CN(C[C@H]2CCC(=O)N2)C3)n1` [Compound 19], the IC50 in assay [1] is 90.6 nM; in the assay with VZV (setting [4]), 535 nM. For the same compound, the EC50 was 650 nM in the assay with HSV-1 Strain F (setting [2]), 399 nM in the assay on HCMV Strain AD169 (setting [3]) and 333 nM in the assay with HSV2 (setting [5]).

Take `Cc1nc(-n2nc(C(=O)NCc3ccc(Cl)cc3)c3c2CN(C[C@H]2CCC(=O)N2)C3)sc1C` [Compound 10]: the IC50 in assay [1] was found to be 20.9 nM; in the assay on VZV (setting [4]) it was 172 nM. In addition, the EC50 in the assay with HSV-1 Strain F (setting [2]) was 189 nM; with HCMV Strain AD169 (setting [3]), 434 nM; with HSV2 (setting [5]), 124 nM.

In the case of `CC(C1CC(F)C(=O)N1)N1Cc2c(C(=O)NCc3ccc(Cl)cc3)nn(C)c2C1` (single isomer, unassigned) [Compound 73], the 50% inhibitory concentration (IC50) in assay [1] worked out at 11.2 nM; with VZV (setting [4]), 534 nM. Moreover, the EC50 came to 614 nM in the assay with HSV-1 Strain F (setting [2]), 134 nM with HCMV Strain AD169 (setting [3]) and 464 nM with HSV2 (setting [5]).

Regarding `O=C1CC[C@H](CN2Cc3c(C(=O)NCc4ccc(Cl)cc4)nn(-c4cnsn4)c3C2)N1` [Compound 22], the figures for the IC50 (in assay [1]; with VZV (~72 hrs)) were 11 nM and 413 nM, respectively. Moreover, the EC50 in the assay on HSV-1 Strain F (~72 hrs) is 231 nM; in the assay on HCMV Strain AD169 (MRC5 cells, ~72 hrs), 313 nM; in the assay on HSV2 (~72 hrs) it was 251 nM.

As for `O=C1CC[C@@H](CN2Cc3c(C(=O)NCc4ccc(Cl)cc4)nn(C4CCOC4)c3C2)N1` (single isomer, unassigned) [Compound 43], the IC50 in assay [1] came out at 58.2 nM; with VZV (setting [4]) it was 2640 nM. Besides, the EC50 was 3550 nM in the assay on HSV-1 Strain F (setting [2]); 3290 nM in the assay with HCMV Strain AD169 (MRC5 cells, ~72 hrs); 3490 nM in the assay on HSV2 (setting [5]).

Consider `CC1c2c(c(C(=O)NCc3ccc(Cl)cc3)nn2C)CN1C(C)C1CCC(=O)N1` (stereo not shown) [Compound 111], for which the IC50 in assay [1] turned out to be 57.9 nM; with VZV (~72 hrs), 402 nM. Also, the EC50 was found to be 557 nM with HSV-1 Strain F (~72 hrs); 125 nM in the assay on HCMV Strain AD169 (MRC5 cells, ~72 hrs); 248 nM in the assay with HSV2 (~72 hrs).

Consider `O=C1CC[C@H](CN2Cc3c(C(=O)NCc4ccc(Cl)cc4)nn(-c4ncc5ccccc5n4)c3C2)N1` [Compound 18], for which the values for the IC50 (in assay [1]; with VZV (setting [4])) were 71.1 nM and 368 nM, respectively. Moreover, the EC50 with HSV-1 Strain F (setting [2]) is 229 nM; in the assay on HCMV Strain AD169 (setting [3]), 555 nM; in the assay on HSV2 (setting [5]) it was 108 nM.
